In US20100041642A1, “UREA INHIBITORS OF MAP KINASES” (LOCUS PHARMACEUTICALS, INC., priority 2008, published 2010):

Target: p38 (Homo sapiens, UniProt Q16539)
Assay: Protein Kinase Assay (33P incorporation from γ-[33P]ATP into GST-ATF-2)
Format: biochemical
Settings: 2 nM p38, preincubated 20 min at 30° C.; 10 uM cold ATP, 2 uM GST-ATF2, 70 min; read-out: ACT. (Activity), IC50 category in Protein Kinase Assay
Summary of the method: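 Compounds preincubated 20 min at 30 °C with 2 nM p38; reaction started with 2 uM GST-ATF-2 (aa 19-96) and 10 uM ATP plus γ-[33P]ATP, pH 7.5, 70 min at 30 °C, 2% DMSO. Phosphoric acid stop; 33P-labelled substrate captured on phosphocellulose and counted by scintillation.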

Chain of p38 (Q16539 whole entry): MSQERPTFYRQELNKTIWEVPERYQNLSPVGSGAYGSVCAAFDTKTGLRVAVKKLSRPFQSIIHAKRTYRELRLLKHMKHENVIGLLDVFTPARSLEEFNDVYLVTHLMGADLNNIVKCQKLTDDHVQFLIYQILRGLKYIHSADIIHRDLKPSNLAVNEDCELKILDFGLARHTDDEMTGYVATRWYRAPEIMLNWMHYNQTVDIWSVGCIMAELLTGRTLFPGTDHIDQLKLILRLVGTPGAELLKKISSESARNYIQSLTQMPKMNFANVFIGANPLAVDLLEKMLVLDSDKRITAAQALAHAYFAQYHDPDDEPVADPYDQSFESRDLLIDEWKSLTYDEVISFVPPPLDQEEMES

Q: For `Cc1ccc(NC(=O)Nc2sc(C(C)(C)C)cc2C(=O)N2CCN(C)C(=O)C2(C)C)cc1-c1cnc(NCC(O)CO)nc1` (stereo not drawn) [1-(5-tert-butyl-3-(2,2,4-trimethyl-3-oxopiperazine-1-carbonyl)thiophen-2-yl)-3-(3-(2-(2,3-dihydroxypropylamino)pyrimidin-5-yl)-4-methylphenyl)urea], which IC50 is on record?
A: The IC50 was under 100 nM.

Q: For `Cc1ccc(NC(=O)Nc2sc(C(C)(C)C)cc2C(=O)N2CCN(C)C(=O)C2(C)C)cc1-c1ccc(NS(C)(=O)=O)nc1` [N-(5-(5-(3-(5-tert-butyl-3-(2,2,4-trimethyl-3-oxopiperazine-1-carbonyl)thiophen-2-yl)ureido)-2-methylphenyl)pyridin-2-yl)methanesulfonamide], which IC50 is on record?
A: Its IC50 is under 100 nM.

Q: With `Cc1ccc(NC(=O)Nc2sc(C(C)(C)C)cc2C(=O)N2CCNC(=O)C2(C)C)cc1-c1ccc(OCCCN2CCN(C)CC2)nc1` [1-(5-tert-butyl-3-(2,2-dimethyl-3-oxopiperazine-1-carbonyl)thiophen-2-yl)-3-(4-methyl-3-(6-(3-(4-methylpiperazin-1-yl)propoxy)pyridin-3-yl)phenyl)urea] as the compound, how does the IC50 read?
A: The IC50 was under 100 nM.

Q: With `COc1ccc(-c2cc(NC(=O)Nc3sc(C(C)(C)C)cc3C(=O)N3CCNC(=O)C3(C)C)ccc2C)cn1` [1-(5-tert-butyl-3-(2,2-dimethyl-3-oxopiperazine-1-carbonyl)thiophen-2-yl)-3-(3-(6-methoxypyridin-3-yl)-4-methylphenyl)urea] as the compound, how does the IC50 read?
A: Its IC50 is under 100 nM.

Q: For `CC(C)(C)c1cc(C(=O)N2CCNC(=O)C2(C)C)c(NC(=O)Nc2cccc(N3CCOCC3)c2)s1` [1-(5-tert-butyl-3-(2,2-dimethyl-3-oxopiperazine-1-carbonyl)thiophen-2-yl)-3-(3-morpholinophenyl)urea], which IC50 is on record?
A: Its IC50 is under 10000 nM.

Q: Which IC50 does the source give for `CCOc1ccc(-c2cc(NC(=O)Nc3sc(C(C)(C)C)cc3C(=O)N3CCN(C)C(=O)C3(C)C)ccc2C)cn1` [1-(5-tert-butyl-3-(2,2,4-trimethyl-3-oxopiperazine-1-carbonyl)thiophen-2-yl)-3-(3-(6-ethoxypyridin-3-yl)-4-methylphenyl)urea] here?
A: Its IC50 is under 100 nM.

Q: For `COCCOc1ccc(-c2cc(NC(=O)Nc3sc(C(C)(C)C)cc3C(=O)N3CCN(C)C(=O)C3(C)C)ccc2C)cn1` [1-(5-tert-butyl-3-(2,2,4-trimethyl-3-oxopiperazine-1-carbonyl)thiophen-2-yl)-3-(3-(6-(2-methoxyethoxy)pyridin-3-yl)-4-methylphenyl)urea], which IC50 is on record?
A: Its IC50 is under 100 nM.

Q: `Cc1ccc(NC(=O)Nc2cn(C(C)(C)C)nc2C(=O)N2CCNC(=O)C2(C)C)cc1-c1ccc(CN2CCOCC2)cn1` [1-(1-tert-butyl-3-(2,2-dimethyl-3-oxopiperazine-1-carbonyl)-1H-pyrazol-4-yl)-3-(4-methyl-3-(5-(morpholinomethyl)pyridin-2-yl)phenyl)urea] was tested. Which IC50 did it give?
A: The IC50 was under 100 nM.

Q: How did the IC50 turn out when `CCc1ccc(-c2cc(NC(=O)Nc3cc(C(C)(C)C)sc3C(=O)N3CCN(C)C(=O)C3(C)C)cc(F)c2C)cn1` [1-(5-tert-butyl-2-(2,2,4-trimethyl-3-oxopiperazine-1-carbonyl)thiophen-3-yl)-3-(3-(6-ethylpyridin-3-yl)-5-fluoro-4-methylphenyl)urea] was run?
A: Its IC50 is under 100 nM.

Q: Which IC50 does the source give for `Cc1ccc(NC(=O)Nc2sc(C(C)(C)C)cc2C(=O)N2CCN(C)C(=O)C2(C)C)cc1-c1ccc(N2CCOCC2)nc1` [1-(5-tert-butyl-3-(2,2,4-trimethyl-3-oxopiperazine-1-carbonyl)thiophen-2-yl)-3-(4-methyl-3-(6-morpholinopyridin-3-yl)phenyl)urea] here?
A: Its IC50 is under 100 nM.

Q: Which IC50 does the source give for `CCNC(=O)c1ccc(-c2cc(NC(=O)Nc3sc(C(C)(C)C)cc3C(=O)N3CCN(C)C(=O)C3(C)C)ccc2C)cn1` [5-(5-(3-(5-tert-butyl-3-(2,2,4-trimethyl-3-oxopiperazine-1-carbonyl)thiophen-2-yl)ureido)-2-methylphenyl)-N-ethylpyridine-2-carboxamide] here?
A: The IC50 was under 100 nM.

Q: How did the IC50 turn out when `Cc1ccc(NC(=O)Nc2sc(C(C)(C)C)nc2C(=O)N2CCN(C)C(=O)C2(C)C)cc1-c1ccc(CN2CCOCC2)nc1` [1-(2-tert-butyl-4-(2,2,4-trimethyl-3-oxopiperazine-1-carbonyl)thiazol-5-yl)-3-(4-methyl-3-(6-(morpholinomethyl)pyridin-3-yl)phenyl)urea] was run?
A: The IC50 was under 100 nM.
